In the NIST ThermoML archive (doi:10.1016/j.jct.2012.08.033) one finds mass density data, which are given here for two compounds.

Data set [1] is described as follows: xn = mol fraction of the nth substance listed. The settings on record: Liquid, vibrating tube, x1 = 1.
For data set [2] the following is noted: Liquid, vibrating tube.

Numbers after ± are expanded uncertainties.

Consider `O` [water] + C1CCOC1, for which the mass density (in general, the mass of a sample divided by its volume) in data set [1] (293.28 K, 100.7 kPa) is on record as 998.33 ± 2 kg/m3; in data set [1] (313.3 K, 78.5 kPa), 992.09 ± 2 kg/m3.

With `O` [water], the mass density was 998.33 ± 2 kg/m3 in data set [2] (293.28 K, 100.7 kPa) and 992.09 ± 2 kg/m3 in data set [2] (313.3 K, 78.5 kPa).
